Source: patent US5086047A, “Novel steroids” (Roussel Uclaf, Department des Brevets, priority 1989, dated 1992)
pIC50: −log10 of the molar value. Where two headings read alike, the source gives them in different places.

Experiments:
[1] = target: T1, aromatase (cytochrome P450 aromatase) (Homo sapiens, UniProt P11511); assay: Aromatase inhibition in vitro, human placental microsomes, tritiated water release from 1β,2β-(H^3)-Androstenedione; format: biochemical
T1 construct: This supernatant was then subjected to an ultra-centrifugation stage (90 minutes, 150,000 g) to obtain the microsomal deposit; from tissue; host or cells: human placenta, microsomal fraction
T1 sequence (P11511 1-503): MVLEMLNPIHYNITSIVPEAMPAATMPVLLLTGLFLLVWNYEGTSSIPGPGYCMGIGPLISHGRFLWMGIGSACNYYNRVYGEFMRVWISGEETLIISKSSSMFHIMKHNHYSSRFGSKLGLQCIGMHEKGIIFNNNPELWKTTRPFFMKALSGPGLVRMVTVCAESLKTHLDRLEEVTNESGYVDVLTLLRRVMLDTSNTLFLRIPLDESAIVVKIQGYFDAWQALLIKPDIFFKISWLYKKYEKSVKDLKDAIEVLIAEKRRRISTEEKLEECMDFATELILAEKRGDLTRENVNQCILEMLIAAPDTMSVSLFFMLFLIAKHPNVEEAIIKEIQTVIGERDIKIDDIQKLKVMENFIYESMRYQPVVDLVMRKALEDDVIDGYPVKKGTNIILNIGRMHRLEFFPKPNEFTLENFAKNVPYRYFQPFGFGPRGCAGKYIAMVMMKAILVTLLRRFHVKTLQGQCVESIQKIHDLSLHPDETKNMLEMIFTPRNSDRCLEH
Procedure: Inhibition dependent on the concentration (measurement of the IC50 =concentration of the inhibitor necessary to reduce the enzymatic activity by 50%).
Human placentas were used which were washed one hour at most after delivery, perfused with physiological serum (5 liters) via the umbilical vein and then deep-frozen at -40° C.
The placentas were thawed at 4° C. and then homogenized (1:3) in a 10 mM phosphate buffer, pH=7.0 containing 100 millimoles of potassium chloride (KCl), 10 millimoles of dithiothreitol (DTT), 10 millimoles of ethylenediamine-tetraacetic acid (EDTA), 40 millimoles of nicotinamide and 250 millimoles of sucrose. The homogenates were then subjected to different phases of centrifugation until the "9000 g" supernatant was obtained (corresponding to cytosol and to endoplasmic reticulum). This supernatant was then subjected to an ultra-centrifugation stage (90 minutes, 150,000 g) to obtain the microsomal deposit. The microsomes were then resuspended in a 50 mM phosphate buffer, pH=7.4, containing 100 millimoles KCl, 1 millimole EDTA, 1 millimole DTT and glycerol (10%). The microsomal suspension was aliquoted and the fractions deep-frozen at the temperature of liquid nitrogen. The concentration of proteins in the microsomal suspension was determined by the BRADFORD method (BRADFORD., Anal. Biochem., Vol. 72, (1976) 248).
To 960 microliters of phosphate buffer (50 millimoles, pH=7.2) 2.5 millimoles glucose-6-phosphate, and containing 0.16 international units of glucose-6-phosphate dehydrogenase (G-6-PDH), the following were added in this order:
1) -10 microliters of inhibitor solubilized in dimethyl-sulfoxide (DMSO) to give final concentrations from 10^-5 M to 10^-10 M.
2) -10 microliters of substrate which was 500 nM Androstenedione solubilized in ethanol and containing 1β,- 2β-(H^3)-Androstenedione in a known isotopic dilution (approx. 200,000 disintegrations per minute).
3) 10 microliters of microsomal suspension equivalent to 25 micrograms of proteins per test.
The enzymatic reaction was then very rapidly initiated by the addition of 10 microliters of reduced nicotinamide adenine dinucleotide phosphate (NADPH) solubilized in water. After stirring, each test was incubated at 37° C. for 10 minutes. The reaction was then stopped by the addition of chloroform (4 ml).
After vigorous stirring of the tubes, they were decanted and centrifuged at 4° C. for 10 minutes at a speed of 3000 r.p.m. (rotations per minute), that is 600 X g. After centrifuging, and for each tube, 100 microliters of supernatant was removed and counted in the presence of a scintillating liquid. This method was derived from the procedures described by Reed et al, (J. Biol. Chem., Vol. 251, (1976), p. 1625) and Thompson et al, (J. Biol. Chem., Vol. 249, (1974), p. 5364). The enzymatic activity (aromatase) was proportional to the percentage of tritium salted out in the form of tritiated water (H^3 20) in the course of the reaction. The inhibition obtained for each concentration of each inhibiting product of the invention was calculated as a percentage of the controls (arbitrary 100%, obtained in the absence of any inhibitor). The CI50 was equal to the concentration of inhibitor necessary to decrease the enzymatic activity by 50% and the values of the CI50 's obtained for the inhibiting products of the invention are as follows: […]

seric estradiol = assay: Amount of estradiol circulating in rats induced with P.M.S.G.; format: in vivo, rat; settings: female rats, PMSG 100 I.U., ** p<0.01
Procedure: I-AMOUNT OF ESTRADIOL CIRCULATING IN RATS INDUCED WITH P.M.S.G.
(Pregnant Mare Serum Gonadotrophine)
Female rats weighing 150 g were induced by an injection of P.M.S.G. (100 I.U./rat/sc). After 90 hours, the animals were treated with the product under test (sc or po) and a blood sample was taken before and after treatment to measure the amount of seric estradiol.
DO, -90 h: injection of 100 I.U. of PMSG/rat.
DO, 0 h: sample of blood from […] then treatment with the product under test.
DO, +2 h: sample of blood.
DO, +6 h: killing of animals and collection of blood.
After coagulation and centrifugation of the blood, the serum was recovered which was dosed with estradiol (E2) by means of an RIA dosage kit (Baxter ER155). The results were expressed as a percentage variation relative to the amount of estradiol at time 0 (each animal is its own control). The statistical test used is the Mann-Whitney U-test (*:p<0.05; **:p<0.01).

[2] = human placental microsomes, Androstenedione 500 nM, 37° C., 10 minutes, read-out: CI50 (concentration of inhibitor necessary to decrease the enzymatic activity by 50%)
[3] = Parenterally (so in the source), 5 mg/kg

Compound	pIC50 [1, 2]	percentage variation relative to the amount of estradiol at time 0, +2 h (seric estradiol; [3]) [percentage variation]	percentage variation relative to the amount of estradiol at time 0, +6 h (seric estradiol; [3]) [percentage variation]	pIC50 [1]	percentage variation relative to the amount of estradiol at time 0, +2 h (seric estradiol; Subcutaneously, 1 mg/kg) [percentage variation]	percentage variation relative to the amount of estradiol at time 0, +6 h (seric estradiol; Subcutaneously, 1 mg/kg) [percentage variation]
CSCC[C@]12CC[C@H](O)C=C1CC[C@@H]1C2=CC[C@]2(C)[C@@H](O)CC[C@@H]12 [26 (3 beta OH), 10β-[2-(methylthio)-ethyl]-Δ^4,9(11) estradien-3β,17β-diol]	6.78	-63	-64	–	–	–
CSCC[C@]12CCC(=O)C=C1CC[C@@H]1C2=CC[C@]2(C)C(=O)CC[C@@H]12 [Example 1, 10β-[2-(methylthio)-ethyl]-Δ^4,9(11) -estradiene-3,17-dione]	–	-51	-51	7.70	-55	-68
CCSCC[C@]12CCC(=O)C=C1CC[C@@H]1C2=CC[C@]2(C)C(=O)CC[C@@H]12 [Example 2]	6.06	–	–	–	–	–
CSCC[C@]12CCC(=O)C=C1CC[C@@H]1C2=CC[C@]2(C)[C@@H](O)CC[C@@H]12 [Example 13, 10β-[2-(methylthio)-ethyl]-Δ^4,9(11) -estradien-17-ol-3-one]	7.30	-70	-53	–	-56	-60
C#CSCC[C@]12CCC(=O)C=C1CC[C@@H]1C2=CC[C@]2(C)C(=O)CC[C@@H]12 [Example 21, 10β-[2-(ethynylthio)-ethyl]-Δ^4,9(11) -estradiene-3,17-dione]	6.48	–	–	–	–	–
C[C@]12CC=C3[C@@H](CCC4=CC(=O)CC[C@@]43CCSCF)[C@@H]1CCC2=O [Example 22]	6.30	–	–	–	–	–
CSCC[C@]12CC[C@@H](O)C=C1CC[C@@H]1C2=CC[C@]2(C)[C@@H](O)CC[C@@H]12 [Example 26 (3 alpha OH)]	–	-53	-53	–	–	–
CSCC[C@]12CCC(=O)C=C1CC[C@@H]1C2=CC[C@]2(C)[C@@H](OC(=O)CCC(=O)O)CC[C@@H]12 [Example 27, Butanedioate of 10β-[2-(methylthio)-ethyl]-3-oxo-Δ^4,9(11) -estradien-17β-yl and of sodium]	–	-58	-45	–	-56	-20
CSCC[C@]12CCC(=O)CC1CC[C@@H]1C2=CC[C@]2(C)C(=O)CC[C@@H]12 (stereo partly drawn) [Example 31, 10β-[2-(methylthio)-ethyl]-Δ^9(11) -estren-3,17-dione]	8.26	-69	-56	–	–	–
